From patent US20250129027A1 (APOGEE PHARMACEUTICALS, INC., priority 2023, published 2025)
In brackets after ≈: the same amount, converted by molar mass. Like-named read-outs stand apart in the source and are kept apart here.

Experiments:
human recombinant MAGL = human recombinant MAGL (Homo sapiens (Human), UniProt Q99685); experiment: In vitro inhibition of MAGL activity (inhibitor screening kit, 4-nitrophenylacetate); assay type: biochemical; details: human recombinant MAGL
In short: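 Percent inhibition derived from absorbance (405-412 nm) of treated wells relative to untreated enzyme control. Human recombinant MAGL with 4-nitrophenylacetate substrate, whose cleavage yields yellow 4-nitrophenol.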

[1] = Plasma stability (LC-MS/MS, % parent compound remaining, half-life); assay type: in vitro ADME; details: human plasma; for half-life at 1 μM: 37° C., 0-240 mins, read-out: Human Plasma Stability (t1/2, min); for plasma stability and/or aqueous solubility compared to reference compound URB597: see Table 5
Experimental: Exemplary compounds described herewith were assayed for plasma stability (various species).
Plasma was removed from deep freezer and allowed to thaw at room temperature (or at 37° C. if needed). Plasma was then centrifuged at 4,000 rpm at RT for 10 min and supernatant was collected and used for the assay: • Drug test tubes: 297 μL plasma/drug test tube, duplicate/drug. • Blank test tubes: 297 μL plasma/Blank test tube, duplicate, too. (Optional, if assay system is stable and consistent) • T0 plasma tube: […] X No. of total sample tubes+50 μL extra for T0 extraction. • (Note: equivalent proportion of solvent mixture as added in drug test tubes will be added before T0 extraction!)
Take out the pre-warmed plasma tubes from the 37° C. incubator. Add 3 μL of 100 μM stock solution (or, equivalent proportion of the solvent mixture to T0 plasma tube for T0 extraction) to each corresponding sample tubes in order, vortex gently (3×) to mix. Finish the sample tubes orderly and quickly, then transfer them to the Thermomixer (program & 37° C. ready), and start the Thermomixer. Record starting time on paper & start the timer for 15 min for the 1st sampling time point.
Now add the equivalent amount of solvent mixture to the T0 plasma tube, mix, and transfer 50 μL plasma to each of the T0 extracting tubes, vortex 20s and placed on ice. Vortex 10s again before centrifuging the samples at 14,000 rpm for 5 min at 4° C.
Repeat the above procedures at each time point (15, 30, 60, 120, 240 min) by transferring 50 μL plasma samples from the testing tubes to the corresponding extracting tubes, in the same order and time scheme as in the addition of the drug to the plasma samples at the beginning of the study.
• Kel=Slope of LN % PCR vs time
Half life (t½)=0.693/Kel (1)

[2] = Aqueous solubility in PBS buffer pH 7.4 (LC-MS); assay type: physicochemical; details: phosphate buffer, kinetic from dmso stock, PBS buffer pH 7.4, room temperature, spiked at 100 μM from DMSO stock
Experimental: Compounds as described herewith were analyzed for their aqueous solubility.
The aqueous solubility of compounds were determined using standard protocols. To illustrate the experimental protocol, the analysis of a representative compound is described. Exemplary compound of Example 158 (MW: 380.4 g/mol) was analyzed in a buffer system at specified pH (phosphate buffer, pH 7.4). This was accomplished by spiking a DMSO stock solution of the test compound at a final concentration of 100 μM in buffer.
Solubility calculation: This is a quantitative assay. The mixture at the end of the assay is filtered by 0.22 micron syringe filter and after 5× dilution in diluent, it was analyzed versus a calibration curve using LC-MS.

human recombinant FAAH = human recombinant FAAH (Homo sapiens (Human), UniProt O00519); experiment: In vitro inhibition of FAAH activity (fluorescent inhibitor screening kit, AMC arachidonoyl amide); assay type: biochemical
In short: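 Fluorogenic kit assay: AMC arachidonoyl amide is cleaved by human recombinant FAAH, read at 340-360/450-465 nm. Percent inhibition versus non-treated control; IC50 values derived from multiple compound concentrations where tested.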

[3] = FAAH, values as listed in Table 5, read-out: IC50
[4] = human recombinant FAAH, read-out: Inhibition on FAAH activity (IC50)

Chain of human recombinant FAAH (O00519 whole entry): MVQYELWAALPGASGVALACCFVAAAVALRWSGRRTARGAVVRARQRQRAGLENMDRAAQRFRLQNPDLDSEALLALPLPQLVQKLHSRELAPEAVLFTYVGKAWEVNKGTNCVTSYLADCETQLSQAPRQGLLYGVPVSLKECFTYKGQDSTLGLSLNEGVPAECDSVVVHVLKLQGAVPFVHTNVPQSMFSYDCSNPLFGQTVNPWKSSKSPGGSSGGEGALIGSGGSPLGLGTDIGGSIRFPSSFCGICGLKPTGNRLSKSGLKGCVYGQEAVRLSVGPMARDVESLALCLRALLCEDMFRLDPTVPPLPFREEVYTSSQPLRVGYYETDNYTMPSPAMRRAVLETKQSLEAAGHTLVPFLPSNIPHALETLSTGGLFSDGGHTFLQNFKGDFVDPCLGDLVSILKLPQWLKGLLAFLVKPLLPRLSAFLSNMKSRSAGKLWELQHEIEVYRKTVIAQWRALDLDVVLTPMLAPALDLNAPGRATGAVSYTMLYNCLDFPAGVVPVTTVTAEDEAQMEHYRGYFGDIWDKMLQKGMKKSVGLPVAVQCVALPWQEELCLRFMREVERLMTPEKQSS
Chain of human recombinant MAGL (Q99685 whole entry): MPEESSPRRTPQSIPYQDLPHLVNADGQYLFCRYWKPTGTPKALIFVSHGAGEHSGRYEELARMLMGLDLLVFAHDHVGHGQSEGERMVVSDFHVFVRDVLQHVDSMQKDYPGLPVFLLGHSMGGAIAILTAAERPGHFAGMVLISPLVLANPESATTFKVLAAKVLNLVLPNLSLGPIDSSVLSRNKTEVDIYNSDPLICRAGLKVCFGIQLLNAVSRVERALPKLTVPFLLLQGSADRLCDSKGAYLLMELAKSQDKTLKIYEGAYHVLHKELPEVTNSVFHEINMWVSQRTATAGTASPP

Row | Compound | IC50 (human recombinant MAGL) [nM] | half-life at 1 μM [1] [min] | solubility [2] [µM] | IC50 (human recombinant FAAH; [3]) [nM] | IC50 (human recombinant FAAH; [4]) [nM] | plasma stability and/or aqueous solubility compared to reference compound URB597 [1]
1 | O=C(NC1CCCCC1)Oc1cccc(-c2cncc(-c3ccco3)c2)c1 [Example 51, 3-(5-(furan-2-yl)pyridin-3-yl)phenyl cyclohexylcarbamate] | > 10000 | 8 | 1.4 (≈ 0.507 µg/mL) | 76.1 | 76.1 | 
2 | COc1ccc(OC(=O)NC2CCCCCC2)cc1-c1cncc(-c2ncco2)c1 [Example 83, 4-methoxy-3-(5-(oxazol-2-yl)pyridin-3-yl)phenyl cycloheptylcarbamate] | > 10000 | 194 | 16.3 (≈ 6.64 µg/mL) | 111 | 10 to 100 | improved plasma stability, improved aqueous solubility, or improved plasma stability and aqueous solubility
3 | O=C(NC1CCCCCC1)Oc1ccc(F)c(-c2cncc(-c3ncco3)c2)c1 [Example 87, 4-fluoro-3-(5-(oxazol-2-yl)pyridin-3-yl)phenyl cycloheptylcarbamate] | > 10000 | 7 | 8.6 (≈ 3.4 µg/mL) | 23.9 | 23.9 | 
4 | O=C(NC1CCCCCC1)Oc1ccc(OC(F)(F)F)c(-c2cncc(-c3ncco3)c2)c1 [Example 91, 3-(5-(oxazol-2-yl)pyridin-3-yl)-4-(trifluoromethoxy)phenyl cycloheptylcarbamate] | > 10000 | 14 | 2.4 (≈ 1.11 µg/mL) | 492 | 100 to 1000 | 
5 | O=C(Oc1cccc(-c2cncc(-c3nnco3)c2)c1)N1CC2(CCC2)C1 [Example 146, 3-(5-(1,3,4-oxadiazol-2-yl)pyridin-3-yl)phenyl 2-azaspiro[3.3]heptane-2-carboxylate] | > 10000 | 186 | 82.7 (≈ 30 µg/mL) | 401 | 401 | improved plasma stability, improved aqueous solubility, or improved plasma stability and aqueous solubility
6 | O=C(NC1CCCCCC1)Oc1cc(O)cc(-c2cncc(-c3nnco3)c2)c1 [Example 165, 3-(5-(1,3,4-oxadiazol-2-yl)pyridin-3-yl)-5-hydroxyphenyl cycloheptylcarbamate] | > 10000 | 28 | 22.6 (≈ 8.91 µg/mL) | 25.8 | 25.8 | 
7 | COc1cc(OC(=O)NC2CCCCCC2)cc(-c2cncc(-c3nnco3)c2)c1 [Example 179, 3-(5-(1,3,4-oxadiazol-2-yl)pyridin-3-yl)-5-methoxyphenyl cycloheptylcarbamate] | 10000 to 50000 | 18 | 9.2 (≈ 3.76 µg/mL) | 91.1 | 91.1 | 
8 | CSc1ccc(OC(=O)NC2CCCCCC2)cc1-c1cncc(-c2nnco2)c1 [Example 191, 3-(5-(1,3,4-oxadiazol-2-yl)pyridin-3-yl)-4-(methylthio)phenyl cycloheptylcarbamate] | > 10000 | 31 | 11.9 (≈ 5.05 µg/mL) | 153 | 153 | improved plasma stability, improved aqueous solubility, or improved plasma stability and aqueous solubility
9 | O=C(NC1CCCCCC1)Oc1cc(F)cc(-c2cncc(-c3nnco3)c2)c1 [Example 198, 3-(5-(1,3,4-oxadiazol-2-yl)pyridin-3-yl)-5-fluorophenyl cycloheptylcarbamate] | > 10000 | 4.7 | 5.7 (≈ 2.26 µg/mL) | 132 | 132 | 
10 | O=C(NC1CCCCCC1)Oc1cccc(-c2cncc(-c3ncn[nH]3)c2)c1 [Example 225, 3-(5-(1H-1,2,4-triazol-5-yl)pyridin-3-yl)phenyl cycloheptyl carbamate] | ~10000 | 47 | 8.6 (≈ 3.25 µg/mL) | 176 | 176 | improved plasma stability, improved aqueous solubility, or improved plasma stability and aqueous solubility
11 | O=C(NC1CCCCCC1)Oc1ccc(O)c(-c2cncc(-c3ncn[nH]3)c2)c1 [Example 231, 3-(5-(1H-1,2,4-triazol-5-yl)pyridin-3-yl)-4-hydroxyphenyl cycloheptylcarbamate] | > 10000 | 634 | 78.8 (≈ 31 µg/mL) | 137 | 137 | improved plasma stability, improved aqueous solubility, or improved plasma stability and aqueous solubility
12 | O=C(NC1CCCCC1)Oc1cccc(-c2cncc(-c3nnco3)n2)c1 [Example 267, 3-(6-(1,3,4-oxadiazol-2-yl)pyrazin-2-yl)phenyl cyclohexylcarbamate] | > 10000 | 12 | 73.6 (≈ 26.9 µg/mL) | 140 | 140 | 
